Data as given in publication PMC11063020, “Antiviral and anti-inflammatory activities of chemical constituents from twigs of Mosla chinensis Maxim” (Natural Products and Bioprospecting, 2024).
pIC50: −log10 of the molar value. Like-named read-outs stand apart in the source and are kept apart here.

Legend:
[1] = test system: NO production in LPS-activated RAW 264.7 cells; experiment: Nitric oxide production assay in LPS-activated RAW 264.7 cells; format: cell-based; conditions: Mus musculus, read-out: IC50 (50% inhibitory concentration), LPS-induced NO production
[2] = Cytotoxicity (CC50) in macrophages; format: cell-based; conditions: mouse
Excerpt: Table 3 Inhibitory effect of 9, 22, 23 and 25 on LSP-induced NO production in macrophages | column: CC50^c (µM)

[3] = test system: A/WSN/33/2009 (H1N1) virus; experiment: microbe, parasite or virus in culture; format: cell-based; conditions: Influenza A virus, MDCK, 48 h; read-out: IC50 against A/WSN/33/2009 (H1N1) virus
[4] = test system: nucleoprotein expression in influenza virus-infected MDCK cells; format: cell-based, influenza A virus; conditions: 20 at 50 μM, 2, 5 and 8 h
[5] = test system: A/WSN/33/2009 (H1N1) virus in MDCK cells; format: cell-based, influenza A virus; conditions: 20 at 50 μM, versus DMSO group
[6] = target: hemagglutinin (HA) of influenza A/WSN/33/2009 (H1N1) (Influenza A virus, UniProt P03454); conditions: chicken RBCs without virus
Sequence of hemagglutinin (HA) of influenza A/WSN/33/2009 (H1N1) (P03454 18-342 limits assumed): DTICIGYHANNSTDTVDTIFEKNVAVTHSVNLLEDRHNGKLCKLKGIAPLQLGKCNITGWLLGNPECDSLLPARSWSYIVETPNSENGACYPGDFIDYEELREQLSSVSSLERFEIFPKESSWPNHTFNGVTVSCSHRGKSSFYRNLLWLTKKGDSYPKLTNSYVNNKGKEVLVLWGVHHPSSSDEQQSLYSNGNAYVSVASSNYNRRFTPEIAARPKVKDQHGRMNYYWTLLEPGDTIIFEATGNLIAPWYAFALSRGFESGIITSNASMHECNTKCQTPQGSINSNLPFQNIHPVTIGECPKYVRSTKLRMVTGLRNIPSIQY
Sequence of hemagglutinin (HA) of influenza A/WSN/33/2009 (H1N1) (P03454 344-565 partner limits assumed): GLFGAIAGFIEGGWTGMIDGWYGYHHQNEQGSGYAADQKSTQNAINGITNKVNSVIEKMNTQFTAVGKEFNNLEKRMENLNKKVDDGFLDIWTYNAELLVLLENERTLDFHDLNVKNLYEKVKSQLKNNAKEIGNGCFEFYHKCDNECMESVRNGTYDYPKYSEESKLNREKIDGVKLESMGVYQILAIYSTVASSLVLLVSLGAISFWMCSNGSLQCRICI

[7] = RAW264.7, LPS (1 μg/ml) activated RAW 264.7 cells, 24 h
[8] = macrophages, read-out: CC50 (50% cytotoxic concentration)

SMILES: O=c1cc(-c2ccc(O)c(O)c2)oc2cc(O)cc(O)c12 [Compound 9, luteolin]
- pIC50 [1, 7]: 4.64
- CC50 [2]: > 50 µM

SMILES: COC(=O)C[C@@H](OC(=O)/C=C/c1ccc(O)c(O)c1)c1ccc(O)c(O)c1 [Compound 23, 3-(3ʹʹʹ,4ʹʹʹ-dihydroxyphenyl)-acrylic acid 1-(3ʹʹ,4ʹʹ-dihydroxyphenyl)-2-methoxycarbonylethyl ester]
- pIC50 [1, 7]: 4.56
- CC50 [2, 8]: > 50 µM

SMILES: [H]/N=C(/NC)NCCC[C@H](N)C(=O)O [L-NMMA, reference compound]
- pIC50 ([1]; RAW264.7, 24 h): 4.66
- CC50 [2, 8]: > 50 µM

SMILES: COC(=O)[C@H]1c2c(/C=C/C(=O)O[C@H](Cc3ccc(O)c(O)c3)C(=O)O)ccc(O)c2O[C@@H]1c1ccc(O)c(O)c1 [Compound 20, methyl lithospermate]
- pIC50 [3]: 4.69
- nucleoprotein protein expression (western blot) [4]: dramatically reduce the nucleoprotein protein expression
- virus population / nucleoprotein distribution in infected cells (fluorescence microscopy) [5]: influenza virus could be inhibited
- effect of the compound alone on red blood cells [6]: no effect on red blood cells

SMILES: CCOC(=O)C1=C[C@@H](OC(CC)CC)[C@H](NC(C)=O)[C@@H](N)C1 [oseltamivir, reference compound]
- pIC50 [3]: 5.16

SMILES: COC(=O)[C@H]1Oc2ccc(/C=C/C(=O)O/C=C\c3ccc(O)c(O)c3)cc2O[C@H]1c1ccc(O)c(O)c1 [Compound 22, hyprhombins A]
- pIC50 [1, 7]: 4.69
- CC50 [2, 8]: > 50 µM

SMILES: COC(=O)[C@H](Cc1ccc(O)c(O)c1)OC(=O)/C=C/c1ccc(O)c2oc(-c3ccc(O)c(O)c3)cc12 [Compound 25, methyl salvianol acid C]
- pIC50 [1, 7]: 4.52
- CC50 [2, 8]: > 50 µM
